Values of other authors in article PMC6099102, “Effect of the Nature of Donor Atoms on the Thermodynamic, Kinetic and Relaxation Properties of Mn(II) Complexes Formed With Some Trisubstituted 12-Membered Macrocyclic Ligands” (Frontiers in Chemistry, 2018).
Where two headings read alike, the source gives them in different places.

How the values were obtained:
[1] = cited from earlier work
[2] = cited from earlier work; for Σ log K2H: log K1H + log K2H
[3] = I = 0.1 M KCl, cited from earlier work; for pMn: pH = 7.4, cM = cL = 10^−5 M
[4] = cited from earlier work; remark: listed apart in the source
[5] = 0.1 M KCl, ref Takács et al., [2014]
[6] = Mn(II) complex, ref Takács et al., [2014]
[7] = I = 0.1 M KCl, ref Forgács et al., [2016]
[8] = ref Tircsó and Woods (in preparation)
[9] = I = 0.1 M KCl, ref Forgács et al., [2017]
[10] = Mn(II) complex, ref Forgács et al., [2016]
[11] = Mn(II) complex, ref Forgács et al., [2017]

O=C([O-])CN1CCN(CC(=O)O)CCN(CC(=O)[O-])CCN(CC(=O)O)CC1.[Mn+2] [[Mn(H2DOTA)]]
r1p ([1]; 0.5 T field strength (20 MHz) and 37 °C, ref Wang and Westmoreland ([2009])): 3.20 mM⁻¹ s⁻¹

O=C(O)CN1CCN(CC(=O)O)CCN(CC(=O)O)CCN(CC(=O)O)CC1 [DOTA]
log K1H [2, 5]: 11.41 | log K2H [2, 5]: 9.83 | log K3H [2, 5]: 4.38 | log K4H [2, 5]: 4.63 | log K5H [2, 5]: 1.92 | log K6H [2, 5]: 1.58 | Σ log K2H [2, 5]: 21.24 | log KML [3, 6]: 19.44 | log KMLH [3, 6]: 3.96 | pMn ([3]; ref Takács et al., [2014]): 9.02 | k1 (proton-assisted dissociation) ([4]; ref Drahos et al., [2011]): 0.040 M⁻¹ s⁻¹

O=C([O-])CN1CCNCCN(CC(=O)[O-])CCNCC1.[Mn+2] [[Mn(trans-DO2A)]]
k1 (proton-assisted dissociation) ([4]; ref Garda et al. ([2016])): 85 M⁻¹ s⁻¹ | k2 (proton-assisted dissociation) ([4]; ref Garda et al. ([2016])): 3.0 × 10^6 M^−2s^−1 | t1/2 pH = 7.4 cM = 10^−5 M ([4]; ref Garda et al. ([2016])): 48 h | r1p ([1]; ref Rolla et al. ([2013])): 1.50^[a] mM^−1s^−1

CN(C)C(=O)CN1CCNCCNCCN(CC(=O)N(C)C)CC1.[Mn+2] [[Mn(cis-DO2AM^Me2)]^2+]
k1 (proton-assisted dissociation) [4, 7]: 8.7 M⁻¹ s⁻¹ | t1/2 0.1 M HCl [4, 7]: 0.0132 min | t1/2 pH = 7.4 cM = 10^−5 M [4, 7]: 556 h | r1p ([1]; ref Forgács et al. ([2016])): 2.50^[h] mM^−1s^−1

CC(C(=O)[O-])N1CCN(C(C)C(=O)[O-])CCN(C(C)C(=O)[O-])CCN(C(C)C(=O)[O-])CC1.[Mn+2] (stereo not shown) [[Mn(DOTMA)]^2−]
k1 (proton-assisted dissociation) ([4]; 1.0 M KCl, proton-assisted dissociation of the [Mn(H2L)] complex, ref Tircsó and Woods (in preparation)): 3.96e-05 M⁻¹ s⁻¹ | t1/2 0.1 M HCl ([4]; 1.0 M KCl, ref Tircsó and Woods (in preparation)): 103 min | k0 (spontaneous dissociation) ([4]; 1.0 M KCl, spontaneous dissociation of the [Mn(H2L)] complex, ref Tircsó and Woods (in preparation)): 0.000104 s⁻¹ | r1p [1, 8]: 1.76 mM⁻¹ s⁻¹

O=C([O-])CN1CCNCCNCCN(CC(=O)[O-])CC1.[Mn+2] [[Mn(cis-DO2A)]]
k1 (proton-assisted dissociation) ([4]; ref Garda et al. ([2016])): 100 M⁻¹ s⁻¹ | k2 (proton-assisted dissociation) ([4]; ref Garda et al. ([2016])): 1.6 × 10^6 M^−2s^−1 | t1/2 pH = 7.4 cM = 10^−5 M ([4]; ref Garda et al. ([2016])): 58 h | r1p ([1]; ref Rolla et al. ([2013])): 2.10^[a] mM^−1s^−1

CN(C)C(=O)CN1CCN(CC(=O)N(C)C)CCN(Cc2ccccc2)CCN(Cc2ccccc2)CC1 [cis-Bz2DO2AM^Me2]
log K1H [2, 9]: 11.11 | log K2H [2, 9]: 8.22 | Σ log K2H [2, 9]: 19.33 | log KML [3, 10]: 11.54 | log KMLOH [3, 10]: 10.44 | pMn ([3]; ref Forgács et al., [2016]): 6.00

O=C(CN1CCNCCNCCN(CC(=O)NCc2ccccc2)CC1)NCc1ccccc1 [cis-DO2AM^Bz2]
log K1H [2, 9]: 9.62 | log K2H [2, 9]: 6.90 | Σ log K2H [2, 9]: 16.52 | log KML [3, 11]: 10.72 | log KMLOH [3, 11]: 9.44 | pMn ([3]; ref Forgács et al., [2017]): 6.69

CN(C)C(=O)CN1CCNCCNCCN(CC(=O)N(C)C)CC1 [cis-DO2AM^Me2]
log K1H [2, 7]: 10.14 | log K2H [2, 7]: 8.38 | Σ log K2H [2, 7]: 18.52 | log KML [3, 10]: 12.64 | pMn ([3]; ref Forgács et al., [2016]): 6.98

CC(C(=O)[O-])N1CCN(C(C)C(=O)O)CCN(C(C)C(=O)[O-])CCN(C(C)C(=O)O)CC1.[Mn+2] (stereo not shown) [[Mn(H2DOTMA)]]
r1p [1, 8]: 2.98 mM⁻¹ s⁻¹
